Data published in patent EP4596547A1, “HETEROCYCLIC COMPOUND AND HARMFUL ARTHROPOD-CONTROLLING COMPOSITION CONTAINING SAME” (priority 2022, dated 2024).

Experiments:
Assay type in all cases: in vivo
[1] = test system: cotton aphids (Aphis gossypii); experiment: Test method 11: foliar spray on cucumber seedlings inoculated with cotton aphids (formulation per Formulation Example 5); details: 120 h, sprayed 10 mL/seedling one day after inoculation, after 5 days, 25°C, read-out: control value
[2] = test system: diamondback moth (Plutella xylostella); experiment: Test method 4: sprayed cabbage foliage cut out, second instar larvae of diamondback moth released; details: foliar, 120 h, sprayed 20 mL/seedling, five second instar larvae, after 5 days, 25°C
Procedure: (§1) A test compound is formed into a formulation according to the method described in Formulation Example 1, and water containing 0.03% by volume of Shindain (registered trademark) is added thereto to prepare a diluted solution containing the test compound at a predetermined concentration.
(§2) A cabbage (Brassicae oleracea) seedling (2 to 3 true leaf stage) planted in a container is sprayed with the diluted solution at a rate of 20 mL/seedling. Thereafter, the foliage portion of the seedling is cut out and placed in a container on which filter paper is laid. Thereto are released five second instar larvae of diamondback moth (Plutella xylostella). After 5 days, the number of surviving insects is counted, and the mortality is determined from the following equation. [formula]

[3] = test system: cotton aphids (Aphis gossypii); experiment: Test method 1: foliar spray on cucumber seedlings inoculated with cotton aphids (formulation per Formulation Example 1); design: mortality: concentration or dose not given beside the values; details: 120 h, sprayed 10 mL/seedling one day after inoculation, surviving insects examined after 5 days, 25°C, read-out: control value
Culex pipiens pallens = experiment: Test method 12: last-instar larvae of Culex pipiens pallens released into diluted solution; details: 24 h, 30 last-instar larvae, one day later, 25°C
Procedure: The test compound is formulated according to the method described in Formulation Example 1, and water is added thereto to prepare a diluted solution containing the test compound at a predetermined concentration. 30 last-instar larvae of Culex pipiens pallens are released into the diluted solution, and the state of the larvae of Culex pipiens is examined one day later to determine the Mortality. The mortality is calculated by the following equation. [formula]

[4] = test system: common cutworm (Spodoptera litura); experiment: Test method 3: sprayed cabbage foliage cut out, second instar larvae of common cutworm released; details: foliar, 120 h, sprayed 20 mL/seedling, five second instar larvae, after 5 days, 25°C
Procedure: as §1
as §2, with “common cutworm (Spodoptera litura).” for “diamondback moth (Plutella xylostella).”

Musca domestica = experiment: Test method 8: container inner surface coated with test compound, Musca domestica; details: 24 h, 40 mg/m^2 (800 ppm acetone solution), five adult female, 1 days, 25°C
Procedure: An acetone solution prepared such that the amount of the test compound is 800 ppm is poured into a container having an internal volume of 20 mL, and the inner surface of the container is uniformly coated such that the amount of the test compound is 40 mg/m^2, and then dried.
Five adult female Musca domestica are placed in the container, and the lid is closed. After a lapse of a predetermined time, the state of Musca domestica is examined, and the mortality is determined. The mortality is calculated by the following equation. [formula]

[5] = test system: diamondback moth (Plutella xylostella); experiment: Test method 10: sprayed cabbage seedling, third instar larvae of diamondback moth released; details: 144 h, sprayed 20 mL/seedling, 10 third instar larvae, after 6 days, 25°C
Procedure: A test compound is formed into a formulation according to the method described in Formulation Example 5, and water containing 0.03% by volume of Shindain (registered trademark) is added thereto to prepare a diluted solution containing the test compound at a predetermined concentration.
A cabbage (Brassicae oleracea) seedling (3 to 4 true leaf stage) planted in a container is sprayed with the diluted solution at a rate of 20 mL/seedling. Thereafter, 10 third instar larvae of diamondback moth (Plutella xylostella) are released. After 6 days, the number of surviving insects is counted, and the mortality is determined from the following equation. [formula]

Aphis gossypii = experiment: Test method 2: soil irrigation of cucumber seedlings, later inoculated with Aphis gossypii; details: 144 h, irrigated 5 mL/seedling, inoculated after 7 days, surviving insects examined after 6 days, 25°C, read-out: control value
Procedure: The test compound is formulated according to the method described in Formulation Example 5, and water is added thereto to prepare a diluted solution containing the test compound at a predetermined concentration. A cucumber (Cucumis sativus) seedling (second true leaf stage) planted in a container is irrigated with the diluted solution at a rate of 5 mL/seedling. After 7 days, the leaf surface of this seedling is inoculated with about 30 Aphis gossypii (whole stage). After 6 days, the number of surviving insects is examined, and the control value is determined by the following formula. [formula] • Characters in the formula represent the following meanings. • Cb: number of test insects in a non-treated section • Cai: number of surviving insects in a non-treated section at the time of investigation • Tb: number of test insects in a treated section • Tai: number of surviving insects in a treated section at the time of investigation Herein, the non-treated section means a section that is subjected to the same operation as that of the treated section except that the test compound is not used.

[6] = test system: Haemaphysalis longicornis; experiment: Test method 7: container inner surface coated with test compound, Haemaphysalis longicornis nymphs; details: 48 h, 100 mg/m^2 (2000 ppm acetone solution), five nymphs, 2 days, 25°C
Procedure: An acetone solution prepared such that the amount of the test compound is 2000 ppm is poured into a container having an internal volume of 20 mL, and the inner surface of the container is uniformly coated such that the amount of the test compound is 100 mg/m^2, and then dried.
Five nymphs of Haemaphysalis longicornis are placed in the container, and the lid is closed. After a lapse of a predetermined time, the state of Haemaphysalis longicornis is examined to determine the mortality. The mortality is calculated by the following equation. [formula]

[7] = test system: Western corn rootworm (Diabrotica virgifera virgifera); experiment: whole plant or invertebrate; details: 120 h
Procedure: Each 1 mg of the test compound is dissolved in 50 µL of a mixed solution of polyoxyethylene sorbitan monococoate and acetone (5 : 95 (volume ratio)). Water containing 0.03% by volume of Shindain (registered trademark) is added thereto to prepare a diluted solution containing the test compound at a predetermined concentration.
Young seedlings of maize (Zea mays) are immersed in the diluted solution for 30 seconds. Thereafter, the two […] are placed in a petri dish (90 mm diameter), and thereto are released 10 second instar larvae of Western corn rootworm (Diabrotica virgifera virgifera). After 5 days, the number of dead insects is counted, and the mortality is determined from the following equation. [formula]

Compound	mortality at 50 ppm [1] [%]	mortality at 200 ppm [1] [%]	mortality at 500 ppm [2] [%]	mortality at 500 ppm [3] [%]	mortality at 3.5 ppm (Culex pipiens pallens) [%]	mortality at 500 ppm [4] [%]	mortality at 40 mg/m2, 40 mg/m2 (Musca domestica) [%]	mortality at 200 ppm [5] [%]	mortality at 1000 ppm (Aphis gossypii) [%]	mortality at 50 ppm [5] [%]	mortality at 100 mg/m2, 100 mg/m2 [6] [%]	mortality [3] [%]	mortality at 200 ppm [7] [%]
CCSc1c(N(C)C(=O)c2ccc(C(F)(F)F)s2)nc2ccc(I)cn12 [compound 6]	≥ 90	≥ 90	≥ 80	≥ 90	> 90	≥ 80	≥ 80	≥ 80	–	–	–	–	–
CCSc1c(N(C)C(=O)c2cnc(C(F)(F)F)s2)nc2ccc(I)cn12 [compound 7]	≥ 90	≥ 90	≥ 80	≥ 90	> 90	–	–	≥ 80	≥ 90	≥ 80	–	–	–
CCSc1c(N(C)C(=O)c2cnc(C(F)(F)F)s2)nc2cc(Br)ccn12 [compound 11]	≥ 90	≥ 90	≥ 80	≥ 90	> 90	–	–	–	≥ 90	–	–	–	–
CCSc1c(N(C)C(=O)c2cc(C(F)(F)F)n(C)n2)nc2ccc(I)cn12 [compound 16]	–	≥ 90	≥ 80	≥ 90	> 90	≥ 80	≥ 80	–	≥ 90	–	–	–	–
CCS(=O)(=O)c1c(N(C)C(=O)c2ccc(C(F)(F)F)o2)nc2ccc(I)cn12 [compound 39]	≥ 90	≥ 90	≥ 80	≥ 90	> 90	–	–	–	≥ 90	–	–	–	–
CCS(=O)(=O)c1c(N(C)C(=O)c2cnc(C(F)(F)F)s2)nc2ccc(I)cn12 [compound 40]	≥ 90	≥ 90	≥ 80	≥ 90	> 90	≥ 80	–	≥ 80	≥ 90	≥ 80	–	–	–
CC[S+]([O-])c1c(N(C)C(=O)c2cnc(C(F)(F)F)s2)nc2ccc(Br)cn12 (stereo not shown) [compound 41]	≥ 90	≥ 90	≥ 80	≥ 90	–	–	–	≥ 80	≥ 90	–	–	–	–
CCS(=O)(=O)c1c(N(C)C(=O)c2cnc(C(F)(F)F)s2)nc2ccc(Br)cn12 [compound 42]	≥ 90	≥ 90	≥ 80	≥ 90	> 90	–	–	≥ 80	≥ 90	–	–	–	–
CC[S+]([O-])c1c(N(C)C(=O)c2cnc(C(F)(F)F)s2)nc2ccc(C(F)(F)F)cn12 (stereo not shown) [compound 43]	≥ 90	≥ 90	≥ 80	≥ 90	–	–	–	≥ 80	≥ 90	–	–	–	–
CCS(=O)(=O)c1c(N(C)C(=O)c2cnc(C(F)(F)F)s2)nc2ccc(C(F)(F)F)cn12 [compound 44]	≥ 90	≥ 90	≥ 80	≥ 90	> 90	–	–	≥ 80	≥ 90	–	–	–	–
CC[S+]([O-])c1c(N(C)C(=O)c2cnc(C(F)(F)F)s2)nc2cc(I)ccn12 (stereo not shown) [compound 45]	≥ 90	≥ 90	–	≥ 90	> 90	–	–	–	–	–	≥ 80	–	–
CCS(=O)(=O)c1c(N(C)C(=O)c2cnc(C(F)(F)F)s2)nc2cc(I)ccn12 [compound 46]	≥ 90	≥ 90	≥ 80	–	> 90	–	–	–	≥ 90	–	–	≥ 90	–
CC[S+]([O-])c1c(N(C)C(=O)c2cnc(C(F)(F)F)s2)nc2cc(Br)ccn12 (stereo not shown) [compound 47]	≥ 90	≥ 90	≥ 80	≥ 90	–	–	–	≥ 80	≥ 90	–	–	–	–
CCS(=O)(=O)c1c(N(C)C(=O)c2cnc(C(F)(F)F)s2)nc2cc(Br)ccn12 [compound 48]	≥ 90	≥ 90	≥ 80	≥ 90	> 90	≥ 80	–	≥ 80	–	–	–	–	–
CCS(=O)(=O)c1c(N(C)C(=O)c2cc(C(F)(F)F)n(C)n2)nc2ccc(I)cn12 [compound 52]	≥ 90	≥ 90	≥ 80	≥ 90	> 90	–	≥ 80	≥ 80	≥ 90	≥ 80	–	–	≥ 80
CCS(=O)(=O)c1c(N(C)C(=O)c2cnn(C3CC3)c2)nc2ccc(I)cn12 [compound 64]	–	–	≥ 80	≥ 90	–	–	–	–	≥ 90	–	–	–	–
CCS(=O)(=O)c1c(N(C)C(=O)c2cn(CC(F)(F)F)nn2)nc2ccc(I)cn12 [compound 67]	≥ 90	≥ 90	–	≥ 90	> 90	–	–	–	≥ 90	–	–	–	–
